SMILES strings stand for the structures. In brackets after ≈: the same amount, converted by molar mass. Numbered stars: 1 amine (or outer) side, 2 acyl side, 3 side chain; on linkers, the order of the positions; unused ones are H or OH. Square brackets hold non-standard residues; d marks the D form. Peptide text beside a SMILES is read from it. * marks the point of attachment. X1 = CCC(=O)C[C@@H](O)C[C@@H](C)C[C@H](N[*:1])C(=O)[*:2]; Alaψ(CH2NMeCH2CH2OH) = C[C@@H](CN(C)CCO)N*; Decanoyl(2R-Me) = CCCCCCCC[C@@H](C)C(=O)*; Aib = CC(C)(N)C(=O)O

One test concerns Mycobacterium tuberculosis. Description: Antimycobacterial activity against Mycobacterium tuberculosis H37Rv ATCC 27294.
Conditions: not given
In kind it is functional.
Regarding `CCCCCCC[C@@H]1C[C@@H]2CCC3=C(C(=O)OCCCCCCC[C@@H]4C[C@@H]5CC[C@@H]6C[C@H](C)NC(=N4)N65)C(C)N=C(N1)N32` (some centres not stated), the minimum inhibitory concentration (MIC) came out at 28.5 µg/mL (≈ 47.9 µM).
Turning to `CSCCC(NC(=O)NC(Cc1c[nH]c2ccccc12)C(=O)O)C(=O)NC(C(=O)N/C=C1\C[C@@H](O)[C@H](n2ccc(=O)[nH]c2=O)O1)C(C)N(C)C(=O)C1Cc2cc(O)ccc2C(C)(C)N1` (some centres not stated) [SANSANMYCIN F], the MIC is 16 µg/mL (≈ 17.7 µM).
Still for that read-out and setting: the result for `CCCCCCC[C@H]1C[C@H]2CCC3=C(C(=O)OCCCCNC(=N)N)C(CCCCC)=NC(=N1)N32` reads 37.7 µg/mL (≈ 77.5 µM); that for `CCC1C=CCC[C@@]2(C[C@@H]3CC[C@@H]4[C@H](C(=O)OCCCCCCCCCCCCCCCC(=O)N(CCCN)C[C@@H](O)CCN)[C@]5(CCC[C@@H](C)O5)NC(=N2)N34)O1` (some centres not stated), 46.5 µg/mL (≈ 58 µM); that for `C/C(=C\CO)CCCC(C)CCCC(C)CCCC(C)C` (configuration not stated), 1.56 µg/mL (≈ 5.26 µM).
On the same count and under the same terms, the result for `CC(C)CC(NC(=O)NC(Cc1c[nH]c2ccccc12)C(=O)O)C(=O)NC(C(=O)N/C=C1\C[C@@H](O)[C@H](n2ccc(=O)[nH]c2=O)O1)C(C)N(C)C(=O)C1Cc2cc(O)ccc2C(C)(C)N1` (some centres not stated) [SANSANMYCIN G] reads 16 µg/mL (≈ 18.1 µM).
On the same count and under the same terms, the result for `CCCCCCCCC[C@@H]1C[C@@H]2CC[C@H]3[C@@H](C(=O)OC(C)CCCCCCC[C@@H]4C[C@@H]5CC[C@@H]6C[C@H](C)NC(=N4)N65)[C@@H](C)N=C(N1)N23` (some centres not stated) [BATZELLADINE L] reads 1.68 µg/mL (≈ 2.57 µM); that for `CCCCCCC[C@@H]1C[C@@H]2CCC3=C(C(=O)OC(C)CCCCCCC[C@@H]4C[C@@H]5CC[C@@H]6C[C@H](C)NC(=N4)N65)C(C)N=C(N1)N32` (some centres not stated) [BATZELLADINE N], 3.18 µg/mL (≈ 5.1 µM); that for `CSSc1cccc[n+]1[O-]`, 1.25 µg/mL (≈ 7.21 µM).

For a further test, the system named is Mycobacterium tuberculosis. Nature of the test: Antimycobacterial activity against Mycobacterium tuberculosis H37Ra. It is filed as functional.
Conditions: not given
For the molecule `C=C(C)C(=O)O[C@H]1C[C@@]2(C)OC(=CC2=O)C(=C)[C@@H](O)[C@H]2OC(=O)C(=C)[C@@H]21` [ISOGOIAZENSOLIDE], the MIC worked out at 1.5 µg/mL.
Same read-out and setting: the value for `C=C(C)[C@@H]1CC[C@]2(C(=O)O)CC[C@]3(C)[C@H](CC[C@@H]4[C@@]5(C)CC[C@H](O)C(C)(C)[C@@H]5CC[C@]43C)[C@@H]12` [BETULINIC ACID] was 25 µg/mL; that for `COc1cc2c(cc1OC)-c1c3c(cc4c1[C@@H](C2)NCC4)OCO3` was 12.5 µg/mL.
On the same count and under the same terms, the result for `COc1ccc2c(=O)c(OC)c(-c3ccccc3)oc2c1` [3,7-DIMETHOXYFLAVONE] reads 50 µg/mL; that for `CCc1c(OC)cc2c(c1O)C(=O)C=C(OC)C2=O`, 12.5 µg/mL.
As for `C=C1C(=O)O[C@H]2[C@H]1[C@@H](OC(=O)/C(C)=C\C)C[C@@]1(C)OC(=CC1=O)C(=C)[C@@H]2O`, the MIC amounted to 3.1 µg/mL.
The same measure, in the same setting: the result for `COc1cc2oc(C)cc(=O)c2c(O)c1CC=C(C)C` reads 50 µg/mL; that for `COc1c(-c2ccccc2)oc2c3c(ccc2c1=O)OC(C)(C)C=C3` [KARANJACHROMENE], 12.5 µg/mL; that for `O=C1CC[C@H](O)c2cc(O)cc(O)c21`, 12.5 µg/mL.
The same measure, in the same setting: the result for `O=C1C[C@@H](c2ccccc2)Oc2cc(O)cc(O)c21` [PINOCEMBRIN] reads 12.5 µg/mL; that for `CCOC(=O)/C=C/c1ccc(OC)cc1` [4-METHOXY ETHYL CINNAMATE], 485 µM; that for `COc1cc(OC)c(-c2coc3cc(O)cc(O)c3c2=O)cc1O` [DALPARVONE], 50 µg/mL.
The same measure, in the same setting: the value for `O=C(CCCCCCCCc1ccccc1)c1c(O)cccc1O` [MALABARICONE A] was 25 µg/mL.
`COC1=CC(=O)c2c(cc(OC)c(C(C)C3=C(O)C(=O)c4cc(O)cc(O)c4C3=O)c2O)C1=O` (configuration not stated) yielded a minimum inhibitory concentration (MIC) of 6.25 µg/mL.
With `COc1ccc2c(=O)c(OC)c(-c3ccc4c(c3)OCO4)oc2c1` [DEMETHOXYKANUGIN], it took 50 µg/mL to inhibit growth (MIC).
Molecule `CCCC/C=C/C#CC#CCCCCCCCC(=O)OCC(O)CO` (configuration not stated) displayed an MIC of 25 µg/mL.
`COC(=O)/C=C/c1ccc(O)c(O)c1` [METHYLCAFFEATE] registered a minimum inhibitory concentration (MIC) of 25 µg/mL.
Still for that read-out and setting: the value for `COc1ccc2c(=O)c3c(oc2c1)-c1cc2c(cc1CO3)OCO2` was 6.25 µg/mL; that for `CC1(C)C=Cc2c(cc3oc(CO)cc(=O)c3c2O)O1` [GREVEICHROMENOL] was 50 µg/mL.
The same measure, in the same setting: the value for `C=C1C(=O)O[C@@H]2/C=C(/CO)C3=CC(=O)[C@@](C)(C[C@H](OC(=O)/C(C)=C\C)[C@@H]12)O3` [CENTRATHERIN] was 3.1 µg/mL.
In the case of `C=C1C(=O)O[C@@H]2/C=C(/CO)C3=CC(=O)[C@@](C)(C[C@H](OC(=O)/C(C)=C/C)[C@@H]12)O3` [LYCHNOPHOROLIDE B], the MIC was 6.2 µg/mL.
On the same count and under the same terms, the value for `C=C1C(=O)O[C@H]2[C@H]1[C@@H](OC(=O)/C(C)=C\C)C[C@@]1(C)OC(=CC1=O)C(=C)[C@H]2O` [ISOCENTRATHERIN] was 3.1 µg/mL.
Still for that read-out and setting: the value for `C=C(C)C(=O)O[C@H]1C[C@@]2(C)OC(=CC2=O)/C(CO)=C\[C@H]2OC(=O)C(=C)[C@H]12` [GOIAZENSOLIDE] was 3.1 µg/mL; that for `CC1(C)C=Cc2c(cc(O)c3c(=O)cc(CO)oc23)O1` [PERFORAMONE D] was 25 µg/mL; that for `O=C(/C=C/C=C/CC/C=C/c1ccc2c(c1)OCO2)N1CCCC1` was 25 µg/mL.
Still for that read-out and setting: the value for `COc1ccc([C@@]23Oc4cc(OC)cc(OC)c4[C@@](O)(C2O)[C@@H](C(=O)NCCCCNC(=O)c2ccccc2)[C@@H]3c2ccccc2)cc1` (some centres not stated) was 25 µg/mL.
As for `CC(=O)O[C@@H]1C[C@H]2C(C)(C)C(=O)C=C[C@]2(C)[C@H]2CC[C@]3(C)C(=CC(=O)[C@H]3c3ccoc3)[C@@]21C` [AZADIRADIONE], the MIC amounted to 6.25 µg/mL.
Same read-out and setting: the value for `O=C1C=C[C@@H]2O[C@H](c3ccccc3)[C@@H](O)[C@@H]2O1` [ALTHOLACTONE] was 6.25 µg/mL; that for `COc1c2ccoc2cc2oc(-c3ccccc3)cc(=O)c12` [PINNATIN] was 12.5 µg/mL.
On the same count and under the same terms, the value for `O=c1cc(-c2ccccc2)oc2c1ccc1occc12` [LANCEOLATIN B] was 50 µg/mL; that for `COc1c(-c2ccc(O)cc2)oc2c3c(ccc2c1=O)OC(C)(C)[C@H](OC(C)=O)[C@@H]3OC(C)=O` was 25 µg/mL.
Molecule `CC(C)CNC(=O)/C=C/C=C/CCCCCCCC/C=C/c1ccc2c(c1)OCO2` [BRACHYSTAMIDE B] yielded a minimal inhibitory concentration (MIC) of 50 µg/mL.
The same measure, in the same setting: the value for `CC(C)=CCOc1ccc(C[C@@H]2NC(=O)[C@H](C(C)C)N(C)C(=O)[C@H](CO)NC(=O)[C@@H]3CCCN3C(=O)[C@@H](Cc3ccccc3)OC(=O)[C@H](C)N(C)C2=O)cc1` [PULLULARIN C] was 50 µg/mL; that for `COc1ccc(C/C=C/c2ccc(O)cc2)c(OC)c1O` [DALPARVINENE] was 50 µg/mL; that for `O=Cc1cc2c(cc1O)[nH]c1cc(O)ccc12` [CLAUSINE O] was 25 µg/mL.
Same read-out and setting: the value for `O=C(/C=C/CCCC/C=C/c1ccc2c(c1)OCO2)N1CCCC1` [BRACHYAMIDE B] was 50 µg/mL.
Same read-out and setting: the result for `C=C[C@H]1C=C[C@H]2[C@@H]3C[C@H](C)CC[C@H]3[C@@H]3Oc4ccc(cc4)C[C@]4(O)NC(=O)[C@H](C(=O)[C@@H]1[C@H]23)C4N1C(=O)[C@H]2C(=O)[C@H]3[C@@H](C=C)C=C[C@H]4[C@@H]5C[C@H](C)CC[C@H]5[C@H](Oc5ccc(cc5)C[C@@H]2C1=O)[C@@H]43` (some centres not stated) [HIRSUTELLONE F] reads 3.12 µg/mL; that for `NC(=O)c1cnccn1` [PYRAZINAMIDE], 810 µM.
`COc1cc(O)c2c(c1)[C@H](O)[C@@H](OC)CC2=O` registered an MIC of 25 µg/mL.
The same measure, in the same setting: the value for `CO[C@H]1CC(=O)c2c(O)cccc2[C@H]1O` was 12.5 µg/mL; that for `O=C(/C=C/CC/C=C/c1ccc2c(c1)OCO2)N1CCCC1` [SARMENTOSINE] was 50 µg/mL; that for `C=C(C)C(=O)O[C@H]1C[C@@]2(C)OC(=CC2=O)C(=C)[C@H](O)[C@H]2OC(=O)C(=C)[C@@H]21` was 3.1 µg/mL.
Consider `CCCCC/C=C/C=C/C(=O)N1CCCC1` [SARMENTINE], for which the minimum inhibitory concentration (MIC) stood at 50 µg/mL.
Same read-out and setting: the value for `C=C(C)CC(O)c1c(OC)cc(O)c2c(=O)cc(C)oc12` (configuration not stated) [PERFORAMONE B] was 25 µg/mL; that for `CC(=O)O[C@@H]1C[C@H]2C(C)(C)C(=O)C=C[C@]2(C)[C@H]2CC[C@@]3(C)[C@H](c4ccoc4)C(=O)[C@H]4O[C@]43[C@@]21C` [EPOXYAZADIRADIONE] was 25 µg/mL.
The same measure, in the same setting: the result for `CC[C@H](C)[C@H]1C(=O)N[C@@H](Cc2ccc(OCC=C(C)C)cc2)C(=O)N(C)[C@@H](C)C(=O)O[C@H](Cc2ccccc2)C(=O)N2CCC[C@H]2C(=O)N[C@@H](CO)C(=O)N1C` [PULLULARIN A] reads 25 µg/mL.
As to `C=C1C(=O)O[C@@H]2/C=C(\C(=O)O)CC/C=C(\C)CC[C@@H]12`, the MIC was found to be 50 µg/mL.
On the same count and under the same terms, the result for `C/C=C(\C)C(=O)C1=C2C3=COC(/C=C/[C@@H](C)CC)=CC3=C(Cl)C(=O)[C@@]2(C)OC1=O` [CHAETOVIRIDIN E] reads 50 µg/mL; that for `CCCC/C=C/C#CC#CC(C)CCCCCCC(=O)O` (configuration not stated), 25 µg/mL; that for `CCCCCCCCCCCC(=O)c1c(O)cc(O)cc1O` [DODECANOYLPHLOROGLUCINOL], 50 µg/mL.
On the same count and under the same terms, the value for `Oc1ccc2c(c1)OC[C@H]1c3cc4c(cc3O[C@@H]21)OCO4` [MAACKIAIN] was 50 µg/mL; that for `O=C1C=C[C@@H](OC(=O)/C=C/c2ccccc2)[C@@H]([C@H]2O[C@@H]2c2ccccc2)O1` [HOWIININ A] was 6.25 µg/mL.
On the same count and under the same terms, the value for `CCCCC/C=C/C=C/C(=O)NCC(C)C` [PELLITORIN] was 50 µg/mL; that for `CCCCCCCC[C@@H](C)C(=O)N1CCC[C@H]1C(=O)N[C@@H](C[C@H](C)C[C@H](O)CC(=O)CC)C(=O)NC(C)(C)C(=O)NC(C)(C)C(=O)N[C@H](C(=O)N[C@H](C(=O)NC(C)(C)C(=O)NC(C)(C)C(=O)N[C@@H](C)CN(C)CCO)C(C)C)[C@@H](C)CC` [TRICHODERIN A] ({Decanoyl(2R-Me)}-P[X1][Aib][Aib]IV[Aib][Aib]-{Alaψ(CH2NMeCH2CH2OH)}) was 25 µg/mL.

Another test has as its system Mycobacterium tuberculosis. Nature of the test: Antimycobacterial activity against Mycobacterium tuberculosis H37Rv. It is filed as functional. As to conditions: Mycobacterium tuberculosis, H37Rv; read-out: MIC.
As to `CCOC(=O)/C=C/c1ccc(OC)cc1` [4-METHOXY ETHYL CINNAMATE], the MIC was found to be 242 µM.
In the case of `NC(=O)c1cnccn1` [PYRAZINAMIDE], the MIC is 810 µM.
For the molecule `CC(C)C1=C(O)C(=O)C2=C(C=C[C@H]3C(C)(C)CCC[C@]23C)C1=O`, the minimal inhibitory concentration (MIC) came out at 25 µg/mL.
On the same count and under the same terms, the result for `CC(=O)NCCc1c2c(c3nccc4c3c1Nc1ccccc1-4)NC(=O)CS2` [SHERMILAMINE B] reads 32 µM.

Values taken from ChEMBL document CHEMBL2203104, “Recent advances in antitubercular natural products” (Eur J Med Chem, 2012).
